Assay results published in paper PMC4357015, “Structure, Function and Inhibition of the Phosphoethanolamine Methyltransferases of the Human Malaria Parasites Plasmodium vivax and Plasmodium knowlesi” (Scientific Reports, 2015).

Tested on: PC biosynthesis in pem1Δpem2Δ-pYES2.1-PkPMT
Assay: phospholipid analysis of yeast pem1Δpem2Δ strain expressing PkPMT
Assay type: cell-based
Conditions: 200 μM AQ
Description: Figure 6 PMT-dependent inhibition of PC biosynthesis by AQ and NSC158011. To assess the effect of AQ on phospholipid metabolism, […] and wild-type strains were grown in minimal medium containing 4% galactose and 2 mM ethanolamine in the absence or presence of 200 μM AQ, lipids were extracted and separated by TLC (A). Each lipid class was scrapped off the TLC plate and quantified by measuring phosphorus (B). The effect of NSC158011 on phospholipid biosynthesis was determined by [33P] orthophosphoric acid labeling as described in Material and Methods. Lipids were separated by TLC (C) and quantified by liquid scintillation spectrometry (D). For all assays, data were used to calculate the PC/PI + PA ratio. The data are represented as the mean ± S.D. of at least two independent experiments.
BY4741-pYes2.1 (wild-type) strains and the pem1Δpem2Δ strains harboring pYES2.1 vector, pYES2.1-PkPMT, pYES2.1-PvPMT or pYES2.1-PfPMT were pre-grown to mid-log phase at 30°C in SG-URA medium supplemented with Etn (2 mM) and Cho (2 mM). […] Each lipid class was excised from the plate and quantified by measuring phosphorus. […] After the growth, lipids were extracted and analyzed as described above. […] The resolved radioactive lipids were visualized by Phosphorimager (GE Typhoon) and quantified by liquid scintillation spectrometry as described.

CCN(CC)Cc1cc(Nc2ccnc3cc(Cl)ccc23)ccc1O [AQ, amodiaquine]
effect on the synthesis of PE: little to no effect
